Patent publication US8669072B2, “Oxadiazoline ligands for modulating the expression of exogenous genes via an ecdysone receptor complex” (Intrexon Corporation, priority 2003, dated 2014)

Tests used:
[1] = target: T1, GAL4 DBD (1-147)-CfEcR(DEF)/VP16AD-βRXREF-LmUSPEF (Choristoneura fumiferana, UniProt O77240); experiment: cell-based; settings: for fold induction at 33.3 µM: 48 h, read-out: Fold Induction Average, 27-63 assay; for Rel Max FI, 27-63 assay: maximum fold induction relative to that of GS-E ligand
T1 construct: The wild-type D, E, and F domains from spruce budworm Choristoneura fumiferana EcR (“CfEcR-DEF”)
Procedure: Stably transfected cells were selected by Zeocin resistance. Individually isolated CHO cell clones were transiently transfected with a GAL4 RE-luciferase reporter (pFR Luc). 27-63 clone was selected using Hygromycin.
(§1) Cells were trypsinized and diluted to a concentration of 2.5×10^4 cells mL. 100 μL of cell suspension was placed in each well of a 96 well plate and incubated at 37° C. under 5% CO2 for 24 h. Ligand stock solutions were prepared in DMSO and diluted 300 fold for all treatments.
(§2) Luciferase reporter gene expression was measured 48 h after cell treatment using Bright-Glo™ Luciferase Assay System from Promega (E2650). Luminescence was detected at room temperature using a Dynex MLX microtiter plate luminometer.
(§3) Each assay was conducted in two separate wells, and the two values were averaged. Fold inductions were calculated by dividing relative light units (“RLU”) in ligand treated cells with RLU in DMSO treated cells. EC50s were calculated from dose response data using a three-parameter logistic model.

Bombyx mori EcR (VBE) = target: T2, Bombyx mori EcR (VBE) (Bombyx mori, UniProt P49881); experiment: Z3 assay: β-galactosidase reporter gene induction in HEK-293 clone Z3 (CVBE / 6XEcRE LacZ); type: cell-based; settings: 33 μM ligand, 48 h, RLU relative to DMSO; for fold induction at 33 µM: HEK293, read-out: Fold Induction Average, Z3 assay
T2 construct: expressed in transfected cells; host or cells: Human HEK-293 cells, retrovirally infected, clone Z3
T2 sequence (P49881 86-606 limits assumed): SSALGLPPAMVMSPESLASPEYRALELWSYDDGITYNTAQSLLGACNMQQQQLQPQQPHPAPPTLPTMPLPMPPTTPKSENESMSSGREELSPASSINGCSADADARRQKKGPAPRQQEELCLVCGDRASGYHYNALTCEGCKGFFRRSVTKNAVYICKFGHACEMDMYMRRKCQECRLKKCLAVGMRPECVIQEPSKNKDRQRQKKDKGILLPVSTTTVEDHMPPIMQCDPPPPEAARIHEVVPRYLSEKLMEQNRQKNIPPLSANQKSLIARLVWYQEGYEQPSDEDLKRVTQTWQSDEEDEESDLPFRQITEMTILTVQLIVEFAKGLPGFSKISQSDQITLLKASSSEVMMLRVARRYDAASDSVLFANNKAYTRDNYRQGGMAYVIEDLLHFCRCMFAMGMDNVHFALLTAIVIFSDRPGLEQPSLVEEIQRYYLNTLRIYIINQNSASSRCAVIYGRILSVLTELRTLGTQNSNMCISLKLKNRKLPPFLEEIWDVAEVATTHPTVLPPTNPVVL
T2 sequence (P19793 1-462 partner): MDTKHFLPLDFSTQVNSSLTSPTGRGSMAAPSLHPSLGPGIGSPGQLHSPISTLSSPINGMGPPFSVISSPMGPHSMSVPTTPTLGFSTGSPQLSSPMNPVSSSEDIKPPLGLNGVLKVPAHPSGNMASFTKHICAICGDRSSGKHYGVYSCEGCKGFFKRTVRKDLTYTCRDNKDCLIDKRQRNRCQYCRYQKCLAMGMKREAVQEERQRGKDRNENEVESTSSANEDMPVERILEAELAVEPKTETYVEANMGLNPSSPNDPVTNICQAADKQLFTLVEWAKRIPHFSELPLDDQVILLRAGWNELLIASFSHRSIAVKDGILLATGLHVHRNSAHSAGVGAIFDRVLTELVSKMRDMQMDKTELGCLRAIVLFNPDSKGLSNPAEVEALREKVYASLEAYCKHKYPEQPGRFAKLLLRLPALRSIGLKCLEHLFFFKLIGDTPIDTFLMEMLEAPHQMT
Procedure: A synthetic ATG start codon was placed under the control of cytomegalovirus (CVBE) immediate early promoter and flanked by long terminal repeats (LTR). The reporter construct contained six copies of the ecdysone response element (EcRE) binding site placed upstream of LacZ and flanked on both sides with LTR sequences (6×EcRE).
Dilution cloning was used to isolate individual clones. Clones were selected using 450 ug/mL G418 and 100 ng/mL puromycin. Individual clones were evaluated based on their response in the presence and absence of test ligands.
Z3 cells were seeded into 96-well tissue culture plates at a concentration of 2.5×10^3 cells per well and incubated at 37° C. in 5% CO2 for twenty-four hours. Stock solutions of ligands were prepared in DMSO. […] The final concentration of DMSO was maintained at 0.03% in both controls and treatments.
Reporter gene expression was evaluated 48 hours after treatment of cells, β-galactosidase activity was measured using Gal Screen™ bioluminescent reporter gene assay system from Tropix (GSY1000). Fold induction activities were calculated by dividing relative light units (“RLU”) in ligand treated cells with RLU in DMSO treated cells. Luminescence was detected at room temperature using a Dynex MLX microtiter plate luminometer.
as §3

[2] = target: T3, GAL4 DBD-CfEcR(DEF)/VP16AD-MmRXRE (Choristoneura fumiferana, UniProt O77240); experiment: 13B3 assay: luciferase reporter gene induction in stable CHO clone 13B3; type: cell-based; settings: 33/33.3 μM ligand, 48 h, RLU relative to DMSO
T3 construct: The wild-type D, E, and F domains from spruce budworm Choristoneura fumiferana EcR (“CfEcR-DEF”)
Procedure: CHO cells were transiently transfected with transcription cassettes for GAL4 DBD-CfEcR(DEF) and for VP16AD-MmRXRF controlled by SV40e promoters. Stably transfected cells were selected using Hygromycin. Individually isolated CHO cell clones were transiently transfected with a GAL4 RE-luciferase reporter (pFR-Luc, Stratagene, La Jolla, Calif.). The 13B3 clone was selected using Zeocin.
as §1, §2, §3

SMILES | EC50 [1] [µM] | fold induction at 33.3 µM [1] | Rel Max FI, 27-63 assay [1] | Fold Induction Average, Z3 assay (Bombyx mori EcR (VBE)) | Fold Induction Average, 13B3 assay [2] | fold induction at 33 µM (Bombyx mori EcR (VBE))
CCc1ccc(C(=O)NN2C(c3cc(C)cc(C)c3)=NOC23CCOCC3)cc1 [RG-120005] | > 33 | 0.8 | 0 |  |  | 
CC1(C)ON=C(c2cccc(C(F)(F)F)c2)N1NC(=O)COCc1ccccc1 [RG-120006] |  |  |  | 0.5 | 1.1 | 
Cc1cc(C)cc(C2=NOC3(CCOCC3)N2NC(=O)COCc2ccccc2)c1 [RG-120009] |  |  |  | 0.8 | 1.3 | 
COc1ccccc1C1=NOC(C)(C)N1NC(=O)c1ccco1 [RG-120012] |  |  |  | 0.7 | 0.7 | 
CCOC(=O)CCC(=O)NN1C(c2ccccc2)=NOC12CCCC2 [RG-120014] |  |  |  | 1.1 |  | 
CC1(C)ON=C(c2ccc3c(c2)OCO3)N1NC(=O)Nc1ccccc1 [RG-120017] |  |  |  | 0.9 | 0.8 | 
COc1ccccc1C1=NOC(C)(C)N1NC(=O)COCc1ccccc1 [RG-120018] |  |  |  | 0.7 | 0.8 | 
Cc1cc(C)cc(C2=NOC3(CCOCC3)N2NC(=O)c2ccccc2)c1 [RG-120019] | > 33 | 1.5 | 0 |  |  | 
CCc1c(OC)cccc1C(=O)NN1C(c2ccc(-c3ccccc3)cc2)=NOC1(C)C [RG-120020] |  |  |  | 0.2 | 1.3 | 
CCc1c(OC)cccc1C(=O)NN1C(c2ccc(OC(F)(F)F)cc2)=NOC1(C)C [RG-120022] | > 33 | 0.3 | 0 |  |  | 0.1
CCc1c(OC)cccc1C(=O)NN1C(c2ccc3c(c2)OCO3)=NOC1(C)C [RG-120023] | > 33 | 1.4 | 0 |  |  | 0.2
COc1ccccc1C1=NOC(C)(C)N1NC(=O)Nc1ccccc1 [RG-120025] |  |  |  | 0.8 | 0.9 | 
CC1(C)ON=C(c2ccc(OC(F)(F)F)cc2)N1NC(=O)COc1ccccc1 [RG-120029] |  |  |  | 0.7 | 1.5 | 
CC1(C)ON=C(c2ccc(OC(F)(F)F)cc2)N1NC(=O)c1ccccc1 [RG-120033] |  |  |  | 0.7 | 0.9 | 
CCOC(=O)CCC(=O)NN1C(c2ccc(OC)cc2OC)=NOC1(C)C [RG-120038] |  |  |  | 0.2 |  | 
Cc1cc(C)cc(C2=NOC3(CCCC3)N2NC(=O)Cc2ccccc2)c1 [RG-120046] |  |  |  | 8.9 | 1.3 | 

SMILES | EC50 [1] [µM] | fold induction at 33.3 µM [1] | Rel Max FI, 27-63 assay [1] | Fold Induction Average, Z3 assay (Bombyx mori EcR (VBE)) | Fold Induction Average, 13B3 assay [2] | fold induction at 33 µM (Bombyx mori EcR (VBE))
COc1ccccc1C1=NOC(C)(C)N1NC(=O)c1cc2ccccc2s1 [RG-120047] |  |  |  | 31.9 | 973.9 | 
Cc1cc(C)cc(C2=NOC3(CCOCC3)N2NC(=O)COc2ccccc2)c1 [RG-120048] |  |  |  | 1.0 |  | 
CCC1(C)ON=C(c2cc(C)cc(C)c2)N1NC(=O)COCc1ccccc1 (stereo not drawn) [RG-120050] |  |  |  | 3.5 | 0.9 | 
CC1(C)ON=C(c2cccc(C(F)(F)F)c2)N1NC(=O)C(F)(F)C(F)(F)Cl [RG-120059] |  |  |  | 0.6 |  | 
COc1ccc(C2=NOC(C)(C)N2NC(=O)Cc2ccccc2)c(OC)c1 [RG-120078] |  |  |  | 0.4 |  | 
CCc1c(OC)cccc1C(=O)NN1C(c2cccc(C(F)(F)F)c2)=NOC1(C)C [RG-120093] | > 33 | 5 | 0 |  |  | 0.2
CC1(C)ON=C(c2cccc(C(F)(F)F)c2)N1NC(=O)c1cc2ccccc2s1 [RG-120108] |  |  |  | 0.3 |  | 
CC1(C)ON=C(c2ccc(OC(F)(F)F)cc2)N1NC(=O)c1cc2ccccc2s1 [RG-120109] |  |  |  | 0.2 |  | 
CCc1ccc(C(=O)NN2C(c3cccc(C(F)(F)F)c3)=NOC2(C)C)cc1 [RG-120148] | > 33 | 0.7 | 0 |  |  | 1.1
COc1ccccc1C1=NOC(C)(C)N1NC(=O)Cc1ccccc1 [RG-120157] |  |  |  | 0.9 |  | 
CCc1ccc(C(=O)NN2C(c3cc(C)cc(C)c3)=NOC2(C)CC)c(F)c1 (stereo not drawn) [RG-121513] | ~10 | 1020 | 0.44 |  |  | 
CCc1ccc(C(=O)NN2C(c3ccccc3)=NOC23CCCC3)c(F)c1 [RG-121514] | 3.89 | 1.7 | 0.5 |  |  | 
CCc1ccc(C(=O)NN2C(c3cc(C)cc(C)c3)=NOC23CCCC3)c(F)c1 [RG-121515] | ~5 | 36.6 | 0.17 |  |  | 
CCc1ccc(C(=O)NN2C(c3ccccc3)=NOC2(C)C)c(F)c1 [RG-121516] | > 33 | 7.9 | 0 |  |  | 
CCc1c(C(=O)NN2C(c3ccccc3)=NOC2(C)C)ccc2c1OCCO2 [RG-121517, 5-ethyl-2,3-dihydro-benzo[1,4]dioxine-6-carboxylic acid (5,5-dimethyl-3-phenyl-[1,2,4]oxadiazol-4-yl)-amide] | ~20 | 3510 | 1.55 |  |  | 
CCc1c(C(=O)NN2C(c3cc(C)cc(C)c3)=NOC2(C)CC)ccc2c1OCCO2 (stereo not drawn) [RG-121518] | 3.57 | 2340 | 1.08 |  |  | 
